Paper PMC9501810, “Bitter Peptides YFYPEL, [sequence], and [sequence], Released during Gastric Digestion of Casein, Stimulate Mechanisms of Gastric Acid Secretion via Bitter Taste Receptors TAS2R16 and TAS2R38” (Journal of Agricultural and Food Chemistry, 2022)

Assays:
[1] = tested on: pepsin; assay: In vitro gastric digestion of casein with targeted UHPLC-MS/MS-MRM quantitation of peptides; format: in vitro ADME, porcine; conditions: 37 °C, n = 4; for degradation of the peptide during further in vitro gastric digestion: SGF pH 3 with pepsin, up to 6 h
Experimental: The in vitro digestion was based on the Nature protocol established by Brodkorb et al.([30]) For this, simulated salivary fluid (SSF, containing 15.1 mM KCl, 3.7 mM KH2PO4, 13.6 mM NaHCO3, 0.15 mM MgCl2(H2O)6, 0.06 mM (NH4)2CO3, 1.1 mM HCl, and 1.5 mM CaCl2(H2O)2) and simulated gastric fluid (SGF, containing 6.9 mM KCl, 0.9 mM KH2PO4, 25.0 mM NaHCO3, 47.2 mM NaCl, 0.12 mM MgCl2(H2O)6, 0.5 mM (NH4)2CO3, 15.6 mM HCl, and 0.15 mM CaCl2(H2O)2) were prepared. A total amount of 100 mg casein was suspended in 3 mL of SSF and incubated for 5 min at 37 °C in the tube rotator. After taking a sample (500 μL, t = 0 h), 2 mL of SGF was added and the pH was adjusted to 3 with 100 μL of HCl (1 M). After addition of 125 μL of pepsin solution (80,000 U/mL in 10 mM HCl), 275 μL of H2O was added to fill up to 5 mL. This was followed by further incubation at 37 °C in a tube rotator for 6 h. 500 μL of samples was taken at 0.25, 0.5, 0.75, 1, 2, 3, 4, 5, and 6 h, respectively. The samples were frozen in liquid nitrogen and stored at −80 °C until further analysis. For MS experiments, all samples were diluted 1:1 with 10% MeCN.
All targeted proteomics LC–MS/MS measurements were performed using a Sciex ExionLC AC (Sciex, Darmstadt, Germany) coupled to a 6500+ QTrap LC–MS/MS system (Sciex, Darmstadt, Germany) operating in the positive electrospray ionization mode. Data acquisition and instrumentation control were performed with AnalystTF software (v 1.7.1; Sciex, Darmstadt, Germany). Separation was performed using a 100 × 2.1 mm, 1.7 μm, Kinetex C18 column (Phenomenex, Aschaffenburg, Germany) with a guard column of the same type with 0.1% aqueous formic acid and acetonitrile containing 0.1% formic acid at a flow rate of 0.25 mL/min. The gradient was based on the following scheme: 0 min, 15% B; 7 min, 40% B; 7.5 min, 98% B; 10.5 min, 98% B; 10.8 min, 15% B; and 15 min, 15% B. The column oven temperature was set at 40 °C, and the injection volume was 1 μL per sample. For MS/MS measurements, the same parameters were used for all samples (ion spray voltage […], source temperature 450 °C, nebulizing gas 60 psi, and heating gas 30 psi). Nitrogen was set to 35 psi and served as a curtain gas to effectively dissolve the ions. To optimize the parameters DP, CE, and collision cell exit potential for each peptide and transition (Supporting Information Table-SI 2), standard solutions of the five synthesized peptides were injected directly into the MS ion source. Ionization parameters were optimized in positive ESI mode using AnalystTF software (v 1.7.1; Sciex, Darmstadt, Germany). For the preparation of the calibration curves, five peptides were dissolved individually in D2O (600 μL) and the concentration of the stock solutions was determined by qNMR.[35] For each peptide, seven calibration solutions (0.5, 1, 5, 10, 50, 100, and 200 μM) were diluted in 5% MeCN from these stock solutions. The data were analyzed using MultiQuant software (v 3.0.3; Sciex, Darmstadt, Germany).

[2] = tested on: Caco-2 cell monolayers; conditions: Caco-2; cited from earlier work
Source text: In addition, transport through Caco-2 cell monolayers was ...

[3] = tested on: HGT-1 cells; assay: Proton secretion assay (intracellular proton index IPX, SNARF-1-AM); format: cell-based, human; conditions: for ΔIPX (change in intracellular proton index vs untreated cells): 10 min incubation in KRHB, mean ± SEM, n = 4–8
Experimental: The measurement of proton secretion from HGT-1 cells represents a well-established model for the identification of bitter compounds. By affecting extraoral bitter taste receptors with bitter compounds, a modulatory effect on proton secretion can be measured. For this purpose, cells were washed with KRHB and incubated with 3 μM of the intracellular pH indicator 1,5 carboxy-seminaphto-rhodafluor acetoxymethyl ester (SNARF-1-AM) under standard conditions. After 30 min, the cells were washed again with KRHB and then incubated with casein (0.01–10 μM equimolar related to the relevant forms αS1- and β-casein), hydrolysate (0.01–10 μM), or the peptides (0.01–200 μM). […] All substances were dissolved and diluted in KRHB. 1 mM histamine was used as a positive control. Measurements were performed using FlexStation 3 (Molecular Devices, USA). The excitation wavelength was 488 nm, and the emission wavelengths were 580 and 640 nm. For calibration (pH range 7.0–8.0), the intracellular and extracellular pH was adjusted with 2 μM nigericin in potassium buffer (20 mM NaCl, 110 mM KCl, 1 mM CaCl2, 1 mM MgSO4, 18 mM D-glucose, and 20 mM HEPES). The intracellular proton index (IPX) was calculated as the log2 value of the 580/640 ratio and compared with cells without treatment. Negative values represent increased secretion of protons and therefore stimulation of mechanisms regulating gastric acid secretion in HGT-1 cells. In contrast, positive values represent an inhibition of secretion compared to the untreated control.

[4] = Solubility of casein in the proton secretion assay; format: physicochemical; conditions: casein in KRHB, concentrations above 10 µM could not be investigated

| highest concentration released during in vitro digestion ([1]; 100 mg casein, SSF then SGF pH 3 with pepsin, 0–6 h, mean) | degradation of the peptide during further in vitro gastric digestion [1] | Substance | transport through Caco-2 cell monolayers [2] | concentrations at which a significant ΔIPX was found ([3]; tested 0.01–200 µM, 10 min) | ΔIPX (change in intracellular proton index vs untreated cells) ([3]; 0.1 µM, IPX = log2 of 580/640 ratio, negative = stimulated proton secretion) | solubility [4] | ΔIPX (change in intracellular proton index vs untreated cells) ([3]; 5 µM, positive = inhibited proton secretion) | ΔIPX (change in intracellular proton index vs untreated cells) ([3]; 10 µM, negative = stimulated, positive = inhibited proton secretion) | change in mean IPX ([3]; casein concentrations below 5 µM (0.01–<5 µM, equimolar related to αS1- and β-casein)) |
| --- | --- | --- | --- | --- | --- | --- | --- | --- | --- |
| up to 148.7 μM | not further degraded | PVVVPPFLQPEVM [bitter casein peptide βA1/A2-CN81–93] | transport through Caco-2 cell monolayers was observed | at 1 and 10 μM only | – | – | – | – | – |
| – | no noticeable degradation | YYVPLGTQ [bitter casein peptide αS1-CN165–172] | – | – | −0.166 ± 0.017 | – | – | – | – |
| – | – | casein | – | – | – | poor solubility | +0.212 ± 0.029 | +0.441 ± 0.037 | No significant change |
